Reference: patent publication US9944654B2, “Nargenicin compounds and uses thereof as antibacterial agents” (priority 2014, dated 2018)
pIC50: −log10 of the molar value. Converted amounts (≈) assume the structure as drawn. “And” between values parts separate entries of the source, which are not always exact repeats. Equal values may be shown once. Read-outs that look alike come from different tables or passages of the source.

What was measured:
[1] = test system: Pseudomonas aeruginosa MB5890 (CB1101, efflux-deleted); test: microbe, parasite or virus in culture; type: cell-based; details: * = some reduction of growth versus control at […]; for MIC: Pseudomonas aeruginosa, read-out: P. aeruginosa MB5890 efflux-del (MIC), MHII broth; for P. aeruginosa MB5890 efflux-del (MIC): MHII broth
[2] = test system: Escherichia coli MB5747 (LS 883, tolC); test: microbe, parasite or virus in culture; type: cell-based; details: * = some reduction of growth versus control at […]; for MIC: Escherichia coli, read-out: E. coli LS883 tolC (MIC), MHII broth; for E. coli LS883 tolC (MIC): MHII broth
[3] = target: T1, S. aureus DnaE (DNA polymerase III α-subunit homolog from Staphylococcus aureus) (Staphylococcus aureus, UniProt Q5HF71); test: biochemical; type: biochemical; details: for IC50: read-out: S. aureus DnaE IC50 (converted)
T1 construct: SaDnaE (S. aureus DnaE residues 1-1065); 6xHis (N); made in house; host or cells: E. coli BL21-AI
T1 sequence (Q5HF71 1-1065): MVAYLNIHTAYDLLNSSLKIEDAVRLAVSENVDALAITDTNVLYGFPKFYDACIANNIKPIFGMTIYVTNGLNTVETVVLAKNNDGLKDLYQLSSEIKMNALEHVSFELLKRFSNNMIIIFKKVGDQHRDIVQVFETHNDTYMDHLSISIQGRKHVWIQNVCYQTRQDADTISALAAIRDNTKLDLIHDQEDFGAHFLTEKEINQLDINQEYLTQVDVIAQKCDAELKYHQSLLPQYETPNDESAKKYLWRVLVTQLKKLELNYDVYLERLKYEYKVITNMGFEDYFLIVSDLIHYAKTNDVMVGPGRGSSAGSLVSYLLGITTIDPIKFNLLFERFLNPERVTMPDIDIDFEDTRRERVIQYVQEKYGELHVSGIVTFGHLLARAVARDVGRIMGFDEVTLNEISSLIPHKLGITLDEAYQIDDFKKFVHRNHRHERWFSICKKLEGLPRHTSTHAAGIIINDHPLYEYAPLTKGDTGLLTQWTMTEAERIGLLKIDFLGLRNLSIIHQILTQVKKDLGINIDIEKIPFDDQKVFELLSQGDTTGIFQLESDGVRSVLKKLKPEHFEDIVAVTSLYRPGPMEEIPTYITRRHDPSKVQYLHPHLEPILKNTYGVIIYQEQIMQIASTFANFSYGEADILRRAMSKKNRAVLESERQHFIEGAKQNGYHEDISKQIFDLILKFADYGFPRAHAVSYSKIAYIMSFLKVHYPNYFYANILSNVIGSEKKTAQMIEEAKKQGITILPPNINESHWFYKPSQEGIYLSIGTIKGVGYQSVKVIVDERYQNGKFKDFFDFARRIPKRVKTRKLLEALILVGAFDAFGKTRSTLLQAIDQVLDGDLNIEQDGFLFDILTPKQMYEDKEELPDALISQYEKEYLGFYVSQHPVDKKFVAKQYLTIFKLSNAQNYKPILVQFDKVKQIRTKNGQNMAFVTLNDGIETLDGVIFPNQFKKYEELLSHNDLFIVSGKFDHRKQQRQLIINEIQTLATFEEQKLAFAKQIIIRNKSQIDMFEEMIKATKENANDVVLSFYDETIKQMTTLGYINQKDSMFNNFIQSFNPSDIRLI
Protocol: (§1) Plasmids encoding EcDnaE (E. coli DnaE residues 1-1160) and SaDnaE (S. aureus DnaE residues 1-1065) with 6×His N-terminal tags, were overexpressed in BL21(DE3) and BL21-AI cells (Invitrogen), respectively. Cells were grown in LB media to an OD ˜0.45 pelleted and then resuspended in Minimal Media, as described in Pryor et al. (1997, Protein Expr Purif. 10:309-19), and inducer (0.4 mM IPTG or 0.2% arabinose) for 21 hours at 18° C. at 220 rpm. Cells were then harvested, frozen for 20 minutes at −80° C. and thawed. Pellets were resuspended in 1× Talon buffer (50 mM Sodium Phosphate, 300 mM Sodium Chloride, pH 7.4) +10% glycerol +Roche PI's (-EDTA). Cells were lysed with two passes through a French press, then centrifuged for 45 minutes at 40,000 rpm (70Ti, Beckman). Supernatant was bound to 5 mL TALON resin (CLONTECH) for 1 hour at room temperature on Nutator. TALON resin was washed with 10 mM imidizole, and DnaE was eluted with 250 mM imidizole. Eluate was concentrated and run on a size exclusion column (SEC200, GE Healthcare) in the following buffer; 25 mM HEPES, 30 mM NaCl,1 mM CaCl2, 5% glycerol, pH 7.9. Pool SEC fractions based on SDS-PAGE run, aliquot, freeze, and store at -80° C.
(§2) DnaE was diluted in 50 mM potassium phosphate pH 7.5, 5 mM BME, 10% glycerol and 200 mM NaCl prior to use.
(§3) The purpose of the DnaE single enzyme assay is to determine the ability of compounds to inhibit the DNA polymerase III α-subunit homolog from Staphylococcus aureus or the α-subunit from Escherichia coli without the other components of the replication machinery. The DnaE single enzyme assay was a modified version of the method, Standard Pol III Assay Using Activated DNA and Four dNTPs, described by Butler et al., 2008, Methods in Molecular Medicine: New Antibiotic Targets 142:25-36. Briefly, in 96-well plates, enzyme was added to a mixture containing 30 mM Tris-HCl pH 7.5, 20% glycerol, 4 mM DTT, 10 mM Mg acetate, 0.025 mM dATP, 0.025 mM dGTP, 0.025 mM dc:TP, 0.011 mM ^3H-dTTP 1 mCi/ml (Perkin-Elmer), and 0.298 mg/mL Dnase I (Sigma) treated “activated” Calf Thymus DNA (Worthington Biochemical). The assay was set up so that 5 μl of compound was distributed to the plates, 90 μl of reaction mix was added to the compound, and 5 μl of enzyme was added to start the reaction. Assays were initiated by the addition of 0.8 μg/ml E. coli or 0.05 μg/ml S. aureus DnaE, incubated for 30 min at 30° C., and terminated by the addition of a 20% trichloroacetic acid and 0.2% sodium pyrophosphate solution. Precipitated labeled DNA was collected on Glass-fiber Filtermat A using Micro96 Harvester, and the filters were washed, dried, and counted in a Microbeta Trilux (Perkin Elmer). Serial dilutions of compounds (in DMSO) were added to the plates before enzyme addition.

[4] = test system: Staphylococcus aureus MB6266 (MRSA COL); test: Nargenicin antibacterial assay (MIC), S. aureus; type: cell-based; details: Staphylococcus aureus, MRSA, read-out: S. aureus COL (MIC), MHII broth + 50% human serum; * = some reduction of growth versus control at […]
[5] = test system: Streptococcus pneumoniae MB6357 (CL 2883); test: Nargenicin antibacterial assay (MIC), S. pneumoniae; type: cell-based; details: for MIC: Streptococcus pneumoniae
[6] = target: T2, E. coli DnaE (DNA polymerase III α-subunit from Escherichia coli) (Escherichia coli, UniProt P10443); test: In vitro DnaE single enzyme assay (E. coli); type: biochemical; details: for pIC50: E. coli DnaE IC50; for IC50: read-out: E. coli DnaE IC50 (converted)
T2 construct: EcDnaE (E. coli DnaE residues 1-1160); 6xHis (N); made in house; host or cells: E. coli BL21(DE3)
Protocol: as §1, §2, §3

[7] = read-out: S. pneumoniae MB2883 (MIC), Isosensitest broth, * = some reduction of growth versus control at […]
[8] = read-out: S. pneumoniae MB2883 (MIC)

T2 sequence (P10443 whole entry, the tested form may be a part): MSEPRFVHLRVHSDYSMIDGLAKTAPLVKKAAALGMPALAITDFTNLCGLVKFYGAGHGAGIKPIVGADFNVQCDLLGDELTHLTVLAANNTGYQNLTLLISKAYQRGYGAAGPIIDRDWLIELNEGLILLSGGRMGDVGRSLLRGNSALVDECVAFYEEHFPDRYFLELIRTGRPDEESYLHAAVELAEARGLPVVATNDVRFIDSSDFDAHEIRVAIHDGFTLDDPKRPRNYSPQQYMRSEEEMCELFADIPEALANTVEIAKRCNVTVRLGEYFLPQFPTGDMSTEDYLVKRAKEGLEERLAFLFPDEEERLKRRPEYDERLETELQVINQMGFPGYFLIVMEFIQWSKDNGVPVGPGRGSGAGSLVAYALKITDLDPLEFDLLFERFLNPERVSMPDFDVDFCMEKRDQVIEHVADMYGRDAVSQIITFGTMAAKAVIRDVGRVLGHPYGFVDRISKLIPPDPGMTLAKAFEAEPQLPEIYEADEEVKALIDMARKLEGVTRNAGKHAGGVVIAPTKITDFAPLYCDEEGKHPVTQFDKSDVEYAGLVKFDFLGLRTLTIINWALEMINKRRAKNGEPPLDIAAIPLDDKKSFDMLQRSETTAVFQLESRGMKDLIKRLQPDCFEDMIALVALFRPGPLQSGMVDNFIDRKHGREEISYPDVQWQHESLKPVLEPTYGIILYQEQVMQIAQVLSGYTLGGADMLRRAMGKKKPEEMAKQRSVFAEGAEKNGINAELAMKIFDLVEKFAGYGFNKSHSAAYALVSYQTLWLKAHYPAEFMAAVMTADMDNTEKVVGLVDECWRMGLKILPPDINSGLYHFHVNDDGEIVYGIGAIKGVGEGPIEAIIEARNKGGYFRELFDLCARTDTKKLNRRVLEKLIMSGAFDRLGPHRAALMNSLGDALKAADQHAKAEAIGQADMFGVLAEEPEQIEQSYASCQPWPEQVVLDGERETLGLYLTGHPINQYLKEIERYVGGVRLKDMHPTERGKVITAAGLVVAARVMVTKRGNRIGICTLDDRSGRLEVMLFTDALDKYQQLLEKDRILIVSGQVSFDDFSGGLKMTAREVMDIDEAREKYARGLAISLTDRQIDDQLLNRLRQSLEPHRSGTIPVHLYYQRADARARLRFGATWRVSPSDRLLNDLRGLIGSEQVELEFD

Row | Structure (SMILES) | MIC [1] [µg/mL] | MIC [2] [µg/mL] | pIC50 ([3]; S. aureus DnaE IC50) | MIC [4] [µg/mL] | MIC [5, 7] [µg/mL] | pIC50 [6] | IC50 [6] [µM] | P. aeruginosa MB5890 efflux-del (MIC) [1] [µg/mL] | E. coli LS883 tolC (MIC) [2] [µg/mL] | pIC50 ([3]; read-out: S. aureus DnaE IC50) | S. pneumoniae MB2883 (MIC) ([5]; Isosensitest broth, * = some reduction of growth versus control at […]) [µg/mL] | IC50 [3] [µM] | MIC [5, 8] [µg/mL]
1 | CO[C@H]1C[C@H]2C=C[C@@H]3[C@H]4[C@H](O)[C@@H](C)C(n5ccnc5)[C@@H]3O[C@]42/C(C)=C/[C@@H](C)[C@@H]([C@@H](C)O)OC1=O (some centres unmarked) [Example 149] | 128 (≈ 271 µM) | 32 (≈ 67.7 µM) | 4.63 | > 128 | > 128 | < 3.67 | – | – | – | – | – | – | –
2 | CO[C@H]1C[C@H]2C=CC3C4[C@H](O)[C@@H](C)[C@@H](OC(=O)c5ccc(OC(C)=O)n5O)[C@@H]3O[C@]42/C(C)=C/[C@@H](C)[C@@H]([C@@H](C)O)OC1=O [Example 173] | 16 (≈ 27.1 µM) | 8 (≈ 13.6 µM) | 6.27 | > 128 | 128 (≈ 217 µM) | – | > 170 | – | – | – | – | – | –
3 | COC1CC2C=CC3C4OC2(C(C)=CC(C)C(C(C)OC(=O)OCCN(CCO)C(CO)(CO)CO)OC1=O)C3C(O)C(C)C4OC(=O)c1ccc[nH]1 (centres unmarked) [Example 31] | 32 (≈ 42.6 µM) | 2 (≈ 2.66 µM) | > 8.10 | 2 | > 128 | – | – | – | – | – | – | – | –
4 | CO[C@H]1CC2C=C[C@H]3[C@H]4O[C@]2(/C(C)=C/[C@@H](C)[C@@H](C(C)O)OC1=O)[C@@H]3[C@H](O)[C@@H](C)[C@H]4OC(=O)c1cc(-c2ccsc2)c[nH]1 (some centres unmarked) [Example 165] | > 128 | 16 (≈ 26.8 µM) | 5.31 | > 128 | 8 (≈ 13.4 µM) | – | – | – | – | – | – | – | –
5 | CO[C@H]1C[C@H]2C=C[C@@H]3[C@H]4C(=O)C(C)C(C[N+](=O)[O-])[C@@H]3O[C@@]24/C(C)=C/[C@@H](C)[C@@H]([C@@H](C)OCSC)OC1=O (some centres unmarked) [Example 175] | > 128 | > 128 | < 3.72 | > 128 | > 128 | – | – | – | – | – | – | – | –
6 | CC[C@H]1OC(=O)[C@@H](OC)C[C@H]2C=C[C@H]3[C@H]4O[C@]2(/C(C)=C/[C@H]1C)[C@@H]3[C@H](O)[C@@H](C)[C@H]4OC(=O)c1ccc[nH]1 [Example 159] | 32 (≈ 64.1 µM) | 4 (≈ 8.01 µM) | > 8.22 | 2 | – | 4.44 and 4.66 and 4.52 and 4.70 | – | 16 | 2 | – | – | – | –
7 | CO[C@H]1CC2C=C[C@H]3[C@H]4O[C@]2(/C(C)=C/[C@@H](C)[C@@H]([C@@H](C)OC(=O)OC2CCC(O)CC2)OC1=O)[C@@H]3[C@H](O)[C@@H](C)[C@H]4OC(=O)c1ccc[nH]1 (single isomer, unassigned) [Example 35] | – | – | – | – | – | – | > 76 | >128 | 32 | 7.97 | 64 | – | –
8 | CCOC(=O)O[C@H](C)[C@H]1OC(=O)[C@@H](OC)CC2C=C[C@H]3[C@H]4O[C@]2(/C(C)=C/[C@H]1C)[C@@H]3[C@H](O)[C@@H](C)[C@H]4OC(=O)c1ccc[nH]1 (some centres unmarked) [Example 29] | > 128 | 8 (≈ 13.6 µM) | – | – | – | 4.12 | – | – | – | – | – | < 0.0102 | 16 (≈ 27.2 µM)
9 | CO[C@H]1C[C@H]2C=CC3C4[C@H](O)[C@@H](C)[C@@H](OC(=O)c5ccc[nH]5)[C@@H]3O[C@]42/C(C)=C/[C@@H](C)[C@@H]([C@@H](C)OC(=O)C(=O)OCCN(C)C)OC1=O.O=C(O)C(F)(F)F [Example 205] | 64 | 2 | – | – | – | 5.11 | – | – | – | – | – | < 0.00776 | > 128
10 | CO[C@H]1CC2C=C[C@H]3[C@H]4O[C@]2(/C(C)=C/[C@@H](C)[C@@H](C(C)O)OC1=O)[C@@H]3[C@H](O)[C@@H](C)[C@H]4OC(=O)c1cc(-c2cccn2C(=O)OC(C)(C)C)c[nH]1 (some centres unmarked) [Example 45] | > 128 | > 128 | 5.66 | > 128 | 4 (≈ 5.88 µM) | – | – | – | – | – | – | – | –
11 | CO[C@H]1C[C@H]2C=C[C@H]3[C@H]4O[C@]2(/C(C)=C/[C@@H](C)[C@@H]([C@@H](C)O)OC1=O)[C@@H]3[C@H](O)[C@@H](C)[C@H]4O [Example 152] | 16 (≈ 37.9 µM) | 16 (≈ 37.9 µM) | – | > 128 | > 128 | – | – | – | – | – | – | – | –
12 | CCN[C@H]1[C@H](C)[C@@H](O)[C@@H]2[C@H]3C=C[C@@H]4C[C@H](OC)C(=O)O[C@H]([C@@H](C)O)[C@H](C)/C=C(\C)[C@@]24O[C@H]31 [Example 147, (3R,4S,7S,8aS,10aR,11R,12S,13S,14R,14aS,14bS,E)-12-(ethylamino)-14-hydroxy-4-((R)-1-hydroxyethyl)-7-methoxy-1,3,13-trimethyl-3,4,8,8a,10a,11,12,13,14,14a-decahydro-11,14b-epoxynaphtho[2,1-e]oxecin-6(7H)-one] | > 128 | > 128 | – | – | > 128 | < 3.65 | – | – | – | – | – | 0.667 | –
13 | CO[C@H]1C[C@H]2C=C[C@H]3[C@H]4O[C@]2(/C(C)=C/[C@@H](C)[C@@H]([C@H](C)N2C(=O)c5ccccc5C2=O)OC1=O)[C@@H]3[C@H](O)[C@@H](C)[C@H]4OC(=O)c1ccc[nH]1 [Example 172] | > 128 | 16 (≈ 24.8 µM) | – | – | > 128 | 4.20 | – | – | – | – | – | ~0.00776 | –
